Reference: patent US20100311691A1, “COMPOSITIONS OF S-ALKYLISOTHIOURONIUM DERIVATIVES FOR TREATING UPPER RESPIRATORY CONGESTION” (priority 2007, published 2010)

Tests used:
[1] = test system: nasal congestion, rhino-sinusitis; test: Example 4: case report Patient A (rhino-sinusitis), nasal drops; type: in vivo; settings: for repeated administrations needed: nasal drops
Description: Patient A was admitted with a diagnosis of rhino-sinusitis. […] Clinical examination indicated hyperemia of the nasal mucosa, rhinorrhea, nasal obstruction with narrowing of the lower and medium nasal cornets. The patient was treated with, antibacterial medication, and the sinuses were drained by the introduction of antiseptics. In addition, 2-3 nasal drops of S-ethylisothiouronium diethylphosphate 1% were administered. The patient was treated during 3 days. As a result of the treatment with S-ethylisothiouronium diethylphosphate, an amelioration of the clinical symptoms was achieved 1-2 days earlier than that achieved by the treatment with S-ethylisothiouronium bromide (designated Olysin). Also, the repeated administration of S-ethylisothiouronium diethylphosphate was reduced to 2-3 times per day, and not 4-5 times as was necessary when administering Olysin.

nasal congestion = settings: unpublished studies; cited from earlier work
[2] = test system: nasal congestion, rhinitis and acute sinusitis; test: Example 4: case report Patient B (rhinitis and acute sinusitis), nasal drops; type: in vivo
Description: Patient B was admitted with a diagnosis of rhinitis and acute sinusitis. The patient complained of headaches, dizziness, and common cold. […] The radiological examination confirmed acute sinusitis. The patient was treated by puncture of the sinuses with the introduction of antiseptics, Cefazoline 1.0 administered intramuscularly 2 times per day, Loratidin tablets 10 mg and, locally, nasal drops of S-ethylisothiouronium diethylphosphate 2% were used 3-4 times per day. The treatment with S-ethylisothiouronium diethylphosphate led to an amelioration of the clinical symptoms and hyperemia of the nasal mucosa 1-2 days earlier than that obtained by the treatment with Olysin.

[3] = test system: upper respiratory tract and oral pharyngeal congestion; test: Summary comparison of diethylphosphate and bromide in upper respiratory tract and oral pharyngeal congestion; type: in vivo, subjects; settings: summary statement

Row | Compound | repeated administrations needed [1] | nasal decongestion (nasal congestion) | side effects (nasal congestion) | adverse effects / tachyphylaxis ([1]; 1% nasal drops) | amelioration of clinical symptoms earlier than with S-ethylisothiouronium bromide (Olysin) ([1]; 2-3 nasal drops of 1%, treated during 3 days, with antibacterial medication and sinus drainage) [days] | adverse effects ([2]; 2% nasal drops) | amelioration of clinical symptoms and hyperemia of the nasal mucosa earlier than with Olysin ([2]; 2% nasal drops 3-4 times per day, with Cefazoline, Loratidin, antiseptics) [days] | efficiency in alleviating congestion and symptoms, relative to S-ethylisothiouronium bromide [3] | side effects [3]
1 | Br.CCSC(=N)N [Olysin, S-ethylisothiouronium bromide] | 4-5 times per day | moderate and short-term nasal decongestions | harmful side effects |  |  |  |  |  | 
2 | S-ethylisothiouronium diethylphosphate | 2-3 times per day |  |  | No adverse effects or tachyphylaxis | 1 to 2 | No adverse effects | 1 to 2 | more efficient than S-ethylisothiouronium bromide | little or no side effects
